This is an account of results in patent US8673910B2, “Proteasome inhibitors for selectively inducing apoptosis in cancer cells” (H. Lee Moffitt Cancer Center and Research Institute, priority 2008, dated 2014).

Several values for one entry are separate records, joined by “and”; a condition that tells them apart may be missing. Identical values can stand only once. Some results are limits rather than exact numbers.

The test system of series [1] is MCF-7 breast cancer cells. Briefly: MTT metabolism assay. The series is classed as cell-based, human. To be noted: Homo sapiens, MCF7, 72 h, MCF-7, 72 h (Table 6); read-out: IC50 for cell viability measured by MTT assay in MCF-7 human breast cancer cells. The procedure:
Cells were plated in 96-well plates in 100 μl medium and allowed to attach overnight. […] Media was aspirated after 24 or 72 hours and replaced with 100 μl complete media containing 1 mg/ml MTT and incubated for three hours at 37° C. in 5% CO2 humidified incubator. Media was then aspirated and DMSO was added. Cells were incubated for 10 min at room temperature while shaking, and the absorbance was determined at 540 nm using a μQuant spectrophotometric plate reader (Bio-TEK, Winooski, Vt.).
Cells were plated in 96-well plates in 100 μl medium and allowed to attach overnight. Cells were then incubated for 72 h with varying concentrations of PI-083, YG1-080, YG1-075, HL2-090-2, HL2-090-4, HL2-090-6, and HL2-090-9 or vehicle control (DMSO). Media was aspirated and replaced with 100 μl complete media containing 1 mg/ml MTT and incubated for three hours at 37° C. in 5% CO2 humidified incubator. Media was then aspirated and DMSO was added. Cells were incubated for 10 min at room temperature while shaking, and the absorbance was determined at 540 nm using a μQuant spectrophotometric plate reader (Bio-TEK, Winooski, Vt.).
For orientation: Tetrazolium dyes change colour on reduction, which living cells bring about.

Series [2] deals with T1, chymotrypsin-like (CT-L) activity of purified 20S rabbit proteasome (Oryctolagus cuniculus, UniProt G1T4Q9).
T1 sequence (G1T4Q9 1-263): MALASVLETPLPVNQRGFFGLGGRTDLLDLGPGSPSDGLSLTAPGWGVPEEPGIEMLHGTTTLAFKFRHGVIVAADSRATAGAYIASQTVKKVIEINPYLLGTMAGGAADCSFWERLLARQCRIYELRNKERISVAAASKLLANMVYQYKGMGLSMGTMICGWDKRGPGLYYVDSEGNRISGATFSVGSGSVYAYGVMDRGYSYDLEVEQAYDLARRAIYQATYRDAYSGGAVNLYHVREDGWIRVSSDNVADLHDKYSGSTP
Nature of the series: Proteolytic activity of purified 20S proteasome, fluorogenic substrate Suc-Leu-Leu-Val-Tyr-AMC. The series is classed as biochemical. Particulars: purified rabbit 20S proteasome; for IC50: PI-083 derivatives (Table 7, naphthoquinone library), read-out: IC50 (μM) Chymotrypsin-like activity.
Method: The inhibitory activity of the compounds was calculated based on vehicle control). This technique monitors the hydrolytic release of a coumarin species from a synthetic peptide substrate.
The assay was conducted by using a fluorogenic peptide as substrate to test synthesized compounds for inhibitory activity against the chymotrypsin-like activity of the purified rabbit 20S proteasome. Briefly, 70 ng of purified 20S proteasome was incubated with 20 μM Suc-Leu-Leu-Val-Tyr-AMC for 1 hour at 37° C. in 100 μl of assay buffer (50 mM Tris-HCl, pH 7.6) with or without inhibitors. After incubation, production of hydrolyzed 7-amido-4-methyl-coumarin (AMC) was measured using a WALLAC Victor2 1420 Multilabel Counter with an excitation filter of 355 nm and an emission filter of 460 nm (Perkin Elmer Life Sciences, Turku, Finland). The inhibitory activity of the compounds was calculated based on vehicle control.

The target in series [3] is T2, CT-L activity of the proteasome in MCF-7 human breast cancer cells (Homo sapiens, UniProt P20618+P28074).
T2 construct: endogenous in cells; host or cells: MCF-7
Briefly: Proteolytic activity in cell lysates of treated intact MCF-7 cells. The series is classed as cell-based. Particulars: intact cells treated 16 h, CT-L measured in cell lysates; two determinations where two values. Here is the method: Human MCF-7 breast cancer cells were cultured in DMEM medium containing 10% fetal calf serum (FCS) and 100 units/ml of penicillin and 100 μg/ml of streptomycin. Cells were maintained at 37° C. in a humidified incubator in an atmosphere of 5% CO2. Cells were treated with different concentrations of PI-083, YG1-080, YG1-075, HL2-090-2, HL2-090-4, HL2-090-6, and HL2-090-9 or vehicle control (DMSO) for 16 h.
Intact cells were treated with compounds and lysates prepared as described above. Cell lysates (5 μg) was incubated with 20 μM Suc-Leu-Leu-Val-Tyr-AMC for the CT-L activity for 1 h at 37° C. in 100 μl of assay buffer (50 mM Tris-HCl, pH 7.6). After incubation, production of hydrolyzed 7-amido-4-methyl-coumarin (AMC) groups was measured using a WALLAC Victor^2 1420 Multilabel Counter with an excitation filter of 355 nm and an emission filter of 460 nm (Perkin Elmer Life Sciences, Turku, Finland).

A word on the IC50: it is the concentration needed to halve the response being measured. The melting point is the temperature, or range, at which the solid turns liquid.

On to `NS(=O)(=O)c1ccc(NC2=C(Cl)C(=O)c3ccccc3C2=O)cc1` [Compound 2t, 4-(3-chloro-1,4-dioxo-1,4-dihydronaphthalen-2-ylamino)benzenesulfonamide], for which the melting point is greater than 300 °C. The concentration for half-maximal inhibition (IC50) in series [1] came out at 2.41 ± 0.19 µM. Also, in series [2], the IC50 came out at 1.1 µM and the “proteasome (chymotrypsin-like) inhibitory activity, in words” value is listed as “equally as active as PI-083”. In series [3], the IC50 is 5.1 µM and 4.7 µM.
Molecule `Cc1noc(NS(=O)(=O)c2ccc(NC3=C(Cl)C(=O)c4ccccc4C3=O)cc2)c1C` [Compound 2h, 4-(3-chloro-1,4-dioxo-1,4-dihydronaphthalen-2-ylamino)-N-(3,4-dimethylisoxazol-yl)-benzenesulfonamide] yielded a melting point of 208 to 210 °C. Further, the IC50 in series [2] came out at 6.4 µM. Also, in series [3], the IC50 is greater than 10 µM.
`Cc1cc(NS(=O)(=O)c2ccc(NC3=C(Cl)C(=O)c4ccccc4C3=O)cc2)no1` [Compound 2d, 4-(3-chloro-1,4-dioxo-1,4-dihydronaphthalen-2-ylamino)-N-(5-methylisoxazol-3-yl)benzenesulfonamide] came in with a melting point of 215 to 217 °C. Further, in series [2], the IC50 was determined as 5.9 µM. In series [3], this molecule registered an IC50 greater than 10 µM.
